In patent publication US12692238B2, “Substituted pyridazinone herbicides” (FMC CORPORATION, priority 2020, dated 2026):

Tests used:
Type in all cases: in vivo
[1] = test system: foxtail, green (green foxtail, Setaria viridis); assay: Test A preemergence, foxtail, green; conditions: 0 to 100 scale, 10 days
Excerpt: (§1) Seeds of plant species selected from barnyardgrass (Echinochloa crus-galli), blackgrass (Alopecurus myosuroides), corn (Zea mays), foxtail, giant (giant foxtail, Setaria faberi), foxtail, green (green foxtail, Setaria viridis), goosegrass (Eleusine indica), kochia (Bassia scoparia), oat, wild (wild oat, Avena fatua), palmer amaranth (pigweed, palmer, Amaranthus palmeri), redroot pigweed (Amaranthus retroflexus), ragweed (common ragweed, Ambrosia artemisiifolia), ryegrass, Italian (Italian ryegrass, Lolium multiflorum), and soybean (Glycine max) were planted into a blend of loam soil and sand and treated preemergence with a directed soil spray using test chemicals formulated in a non-phytotoxic solvent mixture which included a surfactant.
(§2) At the same time, plants selected from these crop and weed species and also wheat (Triticum aestivum), galium (catchweed bedstraw, Galium aparine) and horseweed (Erigeron canadensis) were planted in pots containing the same blend of loam soil and sand and treated with postemergence applications of test chemicals formulated in the same manner. Plants ranged in height from 2 to 10 cm and were in the one- to two-leaf stage for the postemergence treatment. Treated plants and untreated controls were maintained in a greenhouse for 10 days, after which time all treated plants were compared to untreated controls and visually evaluated for injury. Plant response ratings, summarized in Table A, are based on a 0 to 100 scale where 0 is no effect and 100 is complete control. A dash (-) response means no test result.

rice (Oryza sativa) = assay: Test B flooded paddy test, rice; conditions: Oryza sativa; 250 g ai/ha, Flood; visually evaluated after 10 to 14 days; read-out: Plant response rating, Rice (0 to 100 scale where 0 is no effect and 100 is complete control)
Summary of the method: (§3)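 Compound is introduced straight into paddy water on flooded pots (3 cm) containing 2-leaf-stage plants. Controls are run alongside, and all plants are rated by eye on a 0–100 scale after 10 to 14 days under glass.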

[2] = test system: wheat (Triticum aestivum); assay: Test A postemergence, wheat; conditions: Triticum aestivum, post-emergence, 240 h, 10 days, read-out: Plant response rating, Wheat; for plant injury at 31 g/ha: 31 g ai/ha, postemergence, 0 to 100 scale (0 no effect, 100 complete control); for plant injury at 125 g/ha: Postemergence, 125 g ai/ha, 0 to 100 scale
Summary of the method: (§4)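 Greenhouse pot test in loam/sand; preemergence = directed soil spray after planting, postemergence = foliar spray at 1–2 leaf stage (2–10 cm). Formulation: non-phytotoxic solvent mix plus surfactant. Visual injury vs untreated, 0–100 scale, day 10.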

kochia (Bassia scoparia) = assay: Test A postemergence, kochia; conditions: Bassia scoparia, post-emergence, 240 h, 10 days, read-out: Plant response rating, Kochia; for pest or weed control at 31 g/ha: 31 g ai/ha, postemergence, 0 to 100 scale (0 no effect, 100 complete control); for pest or weed control at 125 g/ha: Postemergence, 125 g ai/ha, 0 to 100 scale
Summary of the method: as §4

[3] = test system: foxtail, green (green foxtail, Setaria viridis); assay: Test A postemergence, foxtail, green; conditions: 10 days
Excerpt: as §1, §2

[4] = test system: barnyardgrass (Echinochloa crus-galli); assay: Test B flooded paddy test, barnyardgrass; conditions: Echinochloa crus-galli; 250 g ai/ha, Flood; visually evaluated after 10 to 14 days; read-out: Plant response rating, Barnyardgrass (0 to 100 scale where 0 is no effect and 100 is complete control)
Summary of the method: as §3

[5] = test system: oat, wild (wild oat, Avena fatua); assay: Test A postemergence, oat, wild; conditions: 10 days
Summary of the method: as §4

[6] = test system: blackgrass (Alopecurus myosuroides); assay: Test A preemergence, blackgrass; conditions: 0 to 100 scale, 10 days
Summary of the method: as §4

[7] = test system: palmer amaranth (pigweed, palmer, Amaranthus palmeri); assay: Test A preemergence, palmer amaranth; conditions: 0 to 100 scale, 10 days
Summary of the method: as §4

[8] = test system: goosegrass (Eleusine indica); assay: Test A preemergence, goosegrass; conditions: 0 to 100 scale, 10 days
Summary of the method: as §4

soybean (Glycine max) [9] = assay: Test A postemergence, soybean; conditions: 10 days
Summary of the method: as §4

[10] = test system: oat, wild (wild oat, Avena fatua); assay: Test A preemergence, oat, wild; conditions: 0 to 100 scale, 10 days
Summary of the method: as §4

[11] = test system: goosegrass (Eleusine indica); assay: Test A postemergence, goosegrass; conditions: 10 days
Summary of the method: as §4

[12] = test system: horseweed (Erigeron canadensis); assay: Test A postemergence, horseweed; conditions: 10 days
Summary of the method: as §4

corn (Zea mays) = assay: Test A preemergence, corn; conditions: 0 to 100 scale, 10 days
Summary of the method: as §4

soybean (Glycine max) [13] = assay: Test A preemergence, soybean; conditions: 0 to 100 scale, 10 days
Summary of the method: as §4

[14] = test system: palmer amaranth (pigweed, palmer, Amaranthus palmeri); assay: Test A postemergence, palmer amaranth; conditions: 10 days
Summary of the method: as §4

[15] = test system: wheat (Triticum aestivum); assay: Test A preemergence, wheat; conditions: 125 g ai/ha, 0 to 100 scale, 10 days
[16] = 31 g ai/ha, postemergence, 0 to 100 scale (0 no effect, 100 complete control)
[17] = Postemergence, 125 g ai/ha, 0 to 100 scale

SMILES	Plant response rating, Foxtail, Green ([1]; 31 g ai/ha)	Plant response rating, Foxtail, Green ([1]; 125 g ai/ha)	plant injury at 250 g/ha (rice (Oryza sativa)) [%]	plant injury at 31 g/ha [2] [%]	plant injury at 125 g/ha [2] [%]	pest or weed control at 31 g/ha (kochia (Bassia scoparia)) [%]	pest or weed control at 125 g/ha (kochia (Bassia scoparia)) [%]	Plant response rating, Foxtail, Green [3, 16]	Plant response rating, Foxtail, Green [3, 17]	pest or weed control at 250 g/ha [4] [%]	Plant response rating, Oat, Wild [5, 16]	Plant response rating, Oat, Wild [5, 17]	Plant response rating, Blackgrass ([6]; 31 g ai/ha)	Plant response rating, Blackgrass ([6]; 125 g ai/ha)	Plant response rating, Pigweed, Palmer ([7]; 31 g ai/ha)	Plant response rating, Pigweed, Palmer ([7]; 125 g ai/ha)	Plant response rating, Goosegrass ([8]; 31 g ai/ha)	Plant response rating, Goosegrass ([8]; 125 g ai/ha)	Plant response rating, Soybean (soybean (Glycine max) [9]; [16])	Plant response rating, Soybean (soybean (Glycine max) [9]; [17])	also measured
CC(=O)OCOc1c(Cl)nn(C)c(=O)c1-c1c(C)sc2cccc(Cl)c12 [Compound 1, 5-[(acetyloxy)methoxy]-6-chloro-4-(4-chloro-2-methylbenzo[b]thien-3-yl)-2-methyl-3(2H)-pyridazinone]	0	10	10	0	0	10	50	0	10	0	–	–	–	–	–	–	–	–	–	–	–
CC(=O)OCOc1c(Cl)nn(C)c(=O)c1-c1c(C)ccc2ccccc12 [Compound 5, 5-[(acetyloxy)methoxy]-6-chloro-2-methyl-4-(2-methyl-1-naphthalenyl)-3(2H)-pyridazinone]	50	90	35	10	30	30	60	40	80	40	–	–	–	–	–	–	–	–	–	–	–
COC(=O)OCOc1c(C)nn(C)c(=O)c1-c1c2cc(C)ccc2cc2ccc(F)cc12 [Compound 15, [[5-(2-fluoro-7-methyl-9-anthracenyl)-1,6-dihydro-1,3-dimethyl-6-oxo-4-pyridazinyl]oxy]methyl methyl carbonate]	–	–	65	0	0	100	100	–	–	50	20	40	30	10	100	100	50	90	80	90	Plant response rating, Oat, Wild ([10]; 31 g ai/ha): 20; Plant response rating, Oat, Wild ([10]; 125 g ai/ha): 20; Plant response rating, Goosegrass [11, 16]: 30; Plant response rating, Goosegrass [11, 17]: 60; Plant response rating, Horseweed [12, 16]: 100; Plant response rating, Horseweed [12, 17]: 100; Plant response rating, Corn (corn (Zea mays); 31 g ai/ha): 0; Plant response rating, Corn (corn (Zea mays); 125 g ai/ha): 30; Plant response rating, Soybean (soybean (Glycine max) [13]; 31 g ai/ha): 0; Plant response rating, Soybean (soybean (Glycine max) [13]; 125 g ai/ha): 10; Plant response rating, Pigweed, Palmer [14, 16]: 100; Plant response rating, Pigweed, Palmer [14, 17]: 100; Plant response rating, Wheat [15]: 0
COC(=O)OCOc1c(Cl)nn(C)c(=O)c1-c1c2cc(C)ccc2cc2ccc(C)cc12 [Compound 8, [[3-chloro-5-(2,7-dimethyl-9-anthracenyl)-1,6-dihydro-1-methyl-6-oxo-4-pyridazinyl]oxy]methyl methyl carbonate]	–	–	0	0	0	90	100	–	–	90	0	10	0	0	100	100	0	0	40	60	Plant response rating, Oat, Wild ([10]; 31 g ai/ha): 0; Plant response rating, Oat, Wild ([10]; 125 g ai/ha): 0; Plant response rating, Goosegrass [11, 16]: 0; Plant response rating, Goosegrass [11, 17]: 0; Plant response rating, Horseweed [12, 16]: 100; Plant response rating, Horseweed [12, 17]: 100; Plant response rating, Corn (corn (Zea mays); 31 g ai/ha): 0; Plant response rating, Corn (corn (Zea mays); 125 g ai/ha): 60; Plant response rating, Soybean (soybean (Glycine max) [13]; 31 g ai/ha): 0; Plant response rating, Soybean (soybean (Glycine max) [13]; 125 g ai/ha): 0; Plant response rating, Pigweed, Palmer [14, 16]: 70; Plant response rating, Pigweed, Palmer [14, 17]: 100; Plant response rating, Wheat [15]: 0
CC(=O)OCOc1c(Cl)nn(C)c(=O)c1-c1c2ccccc2c(Cl)c2ccccc12 [Compound 11, 5-[(acetyloxy)methoxy]-6-chloro-4-(10-chloro-9-anthracenyl)-2-methyl-3(2H)-pyridazinone]	–	–	0	0	0	0	50	–	–	15	–	–	–	–	–	–	–	–	–	–	–
